Test results taken from ChEMBL document CHEMBL1158330, “Two new puriniums and three new pyrimidines from Heterostemma brownii” (J Nat Prod, 1997).

Tests used:
[1] = Cytotoxicity against human HCE6 cells at 10 uM after 72 hrs by MTT assay relative to control; type: functional; settings: HCE6, 72 h
Huh-7 [2] = assay: Cytotoxicity against human HuH7 cells at 10 uM after 72 hrs by MTT assay relative to control; type: functional; settings: Huh-7, 72 h
Huh-7 [3] = assay: Cytotoxicity against human HuH7 cells at 1 uM after 72 hrs by MTT assay relative to control; type: functional; settings: Huh-7, 72 h
K562 [4] = assay: Cytotoxicity against human K562 cells after 72 hrs by MTT assay; type: functional, cell-based; settings: K562, 72 h
Huh-7 [5] = assay: Cytotoxicity against human HuH7 cells at 1000 uM after 72 hrs by MTT assay relative to control; type: functional; settings: Huh-7, 72 h
MOLT-4 [6] = assay: Cytotoxicity against human MOLT4 cells at 10 uM after 72 hrs by MTT assay relative to control; type: functional; settings: MOLT-4, 72 h
K562 [7] = assay: Cytotoxicity against human K562 cells at 1 uM after 72 hrs by MTT assay relative to control; type: functional; settings: K562, 72 h
MOLT-4 [8] = assay: Cytotoxicity against human MOLT4 cells after 72 hrs by MTT assay; type: functional, cell-based; settings: MOLT-4, 72 h
[9] = Cytotoxicity against human HCE6 cells at 100 nM after 72 hrs by MTT assay; type: functional; settings: HCE6, 72 h
MOLT-4 [10] = assay: Cytotoxicity against human MOLT4 cells at 100 nM after 72 hrs by MTT assay relative to control; type: functional; settings: MOLT-4, 72 h
HL-60 [11] = assay: Cytotoxicity against human HL60 cells after 72 hrs by MTT assay; type: functional, cell-based; settings: HL-60, 72 h
K562 [12] = assay: Cytotoxicity against human K562 cells at 100 uM after 72 hrs by MTT assay relative to control; type: functional; settings: K562, 72 h
Huh-7 [13] = assay: Cytotoxicity against human HuH7 cells after 72 hrs by MTT assay; type: functional, cell-based; settings: Huh-7, 72 h
[14] = Cytotoxicity against human HCE6 cells at 1000 uM after 72 hrs by MTT assay relative to control; type: functional; settings: HCE6, 72 h
HL-60 [15] = assay: Cytotoxicity against human HL60 cells at 1000 uM after 72 hrs by MTT assay relative to control; type: functional; settings: HL-60, 72 h
HL-60 [16] = assay: Cytotoxicity against human HL60 cells at 1 uM after 72 hrs by MTT assay relative to control; type: functional; settings: HL-60, 72 h
K562 [17] = assay: Cytotoxicity against human K562 cells at 100 nM after 72 hrs by MTT assay relative to control; type: functional; settings: K562, 72 h
[18] = Cytotoxicity against human HCE6 cells at 1 uM after 72 hrs by MTT assay relative to control; type: functional; settings: HCE6, 72 h
HL-60 [19] = assay: Cytotoxicity against human HL60 cells at 100 uM after 72 hrs by MTT assay relative to control; type: functional; settings: HL-60, 72 h
MOLT-4 [20] = assay: Cytotoxicity against human MOLT4 cells at 100 uM after 72 hrs by MTT assay relative to control; type: functional; settings: MOLT-4, 72 h
Huh-7 [21] = assay: Cytotoxicity against human HuH7 cells at 100 uM after 72 hrs by MTT assay relative to control; type: functional; settings: Huh-7, 72 h
K562 [22] = assay: Cytotoxicity against human K562 cells at 10 uM after 72 hrs by MTT assay relative to control; type: functional; settings: K562, 72 h
Huh-7 [23] = assay: Cytotoxicity against human HuH7 cells at 100 nM after 72 hrs by MTT assay relative to control; type: functional; settings: Huh-7, 72 h
[24] = Cytotoxicity against human HCE6 cells after 72 hrs by MTT assay; type: functional, cell-based; settings: HCE6, 72 h
[25] = Cytotoxicity against human HCE6 cells at 100 uM after 72 hrs by MTT assay relative to control; type: functional; settings: HCE6, 72 h
MOLT-4 [26] = assay: Cytotoxicity against human MOLT4 cells at 1 uM after 72 hrs by MTT assay relative to control; type: functional; settings: MOLT-4, 72 h
HL-60 [27] = assay: Cytotoxicity against human HL60 cells at 100 nM after 72 hrs by MTT assay relative to control; type: functional; settings: HL-60, 72 h
K562 [28] = assay: Cytotoxicity against human K562 cells at 1000 uM after 72 hrs by MTT assay relative to control; type: functional; settings: K562, 72 h
MOLT-4 [29] = assay: Cytotoxicity against human MOLT4 cells at 1000 uM after 72 hrs by MTT assay relative to control; type: functional; settings: MOLT-4, 72 h
HL-60 [30] = assay: Cytotoxicity against human HL60 cells at 10 uM after 72 hrs by MTT assay relative to control; type: functional; settings: HL-60, 72 h

Compound `COc1nc(N(C)C)nc2c1[n+](C)cn2C` [HETEROMINE A] has a viability at 10 µM [1] of 26.2%, a viability at 10 µM (Huh-7 [2]) of 91.1% and a viability at 1 µM (Huh-7 [3]) of 102%. The IC50 (K562 [4]) was 9.88 µM, the viability at 1000 µM (Huh-7 [5]) was 11.1% and the viability at 10 µM (MOLT-4 [6]) was 54.8%. For the same compound, the viability at 1 µM (K562 [7]) was 107%, the IC50 (MOLT-4 [8]) was 14.4 µM and the viability at 0.1 µM [9] was 92.4%. For the same compound, the viability at 0.1 µM (MOLT-4 [10]) was 94.7%, the IC50 (HL-60 [11]) was 7.43 µM and the viability at 100 µM (K562 [12]) was 33.5%. It also gave an IC50 (Huh-7 [13]) of 71.8 µM, a viability at 1000 µM [14] of 1.7% and a viability at 1000 µM (HL-60 [15]) of 5.7%. It also gave a viability at 1 µM (HL-60 [16]) of 99.3%, a viability at 0.1 µM (K562 [17]) of 94.3% and a viability at 1 µM [18] of 87.4%. For the same compound, the viability at 100 µM (HL-60 [19]) was 8.2%, the viability at 100 µM (MOLT-4 [20]) was 24.8% and the viability at 100 µM (Huh-7 [21]) was 43.1%. For the same compound, the viability at 10 µM (K562 [22]) was 49.7%, the viability at 0.1 µM (Huh-7 [23]) was 97.3% and the IC50 [24] was 4.08 µM. The viability at 100 µM [25] was 8.2%, the viability at 1 µM (MOLT-4 [26]) was 90.7% and the viability at 0.1 µM (HL-60 [27]) was 94.5%. For the same compound, the viability at 1000 µM (K562 [28]) was 5.9%, the viability at 1000 µM (MOLT-4 [29]) was 5.6% and the viability at 10 µM (HL-60 [30]) was 42.7%.
For `CNc1nc(OC)c2c(n1)n(C)c[n+]2C` [HETEROMINE B], the viability at 10 µM [1] was 85%, the viability at 10 µM (Huh-7 [2]) was 94.3% and the viability at 1 µM (Huh-7 [3]) was 103%. It also gave an IC50 (K562 [4]) of 62.9 µM, a viability at 1000 µM (Huh-7 [5]) of 28.8% and a viability at 10 µM (MOLT-4 [6]) of 86%. The viability at 1 µM (K562 [7]) was 95.5%, the IC50 (MOLT-4 [8]) was 52.3 µM and the viability at 0.1 µM [9] was 82.2%. The viability at 0.1 µM (MOLT-4 [10]) was 107%, the IC50 (HL-60 [11]) was 27 µM and the viability at 100 µM (K562 [12]) was 40.4%. For the same compound, the IC50 (Huh-7 [13]) was 464 µM, the viability at 1000 µM [14] was 10.6% and the viability at 1000 µM (HL-60 [15]) was 14.9%. The viability at 1 µM (HL-60 [16]) was 99.1%, the viability at 0.1 µM (K562 [17]) was 96.8% and the viability at 1 µM [18] was 82.2%. The viability at 100 µM (HL-60 [19]) was 20.3%, the viability at 100 µM (MOLT-4 [20]) was 35.9% and the viability at 100 µM (Huh-7 [21]) was 92.5%. The viability at 10 µM (K562 [22]) was 88.2%, the viability at 0.1 µM (Huh-7 [23]) was 104% and the IC50 [24] was 36 µM. It also gave a viability at 100 µM [25] of 22.1%, a viability at 1 µM (MOLT-4 [26]) of 91% and a viability at 0.1 µM (HL-60 [27]) of 114%. The viability at 1000 µM (K562 [28]) was 27.6%, the viability at 1000 µM (MOLT-4 [29]) was 17.4% and the viability at 10 µM (HL-60 [30]) was 72.6%.
